Source: PMC5356695, “A phase 1 study of oral ridaforolimus in pediatric patients with advanced solid tumors” (Oncotarget, 2016)

Columns and labels:
clinical = conditions: for AUC(0-t) / half-life / concentration at 4 h / concentration at 8 h: human, whole blood
Description: Whole blood samples (2 mL each) for pharmacokinetic analyses were collected at the following time points: <5 minutes before dosing on days 1 through 5 and at 0.5, 1, 2, 4, 8, 24, and 72 hours after drug administration on day 5 of the first week of the first treatment cycle. Blood concentrations of ridaforolimus were determined using a validated liquid chromatography/tandem mass spectrometry assay as in previous ridaforolimus studies (Charles River Laboratories, Shrewsbury, MA). The pharmacokinetic parameters of AUC0–24h and elimination half-life (t1/2) were determined by noncompartmental modeling using WinNonlin software (Pharsight, Certara, Princeton, NJ).

[1] = set-up: method as in earlier work; conditions: 40 mg once daily 5 days per week, ref data on file with ARIAD Pharmaceuticals, Inc./Merck & Co.; cited from earlier work
[2] = set-up: method as in PMID 22037923; conditions: cited from earlier work

With `CO[C@H]1C[C@@H]2CC[C@@H](C)[C@@](O)(O2)C(=O)C(=O)N2CCCC[C@H]2C(=O)O[C@H]([C@H](C)C[C@@H]2CC[C@@H](OP(C)(C)=O)[C@H](OC)C2)CC(=O)[C@H](C)/C=C(\C)[C@@H](O)[C@@H](OC)C(=O)[C@H](C)C[C@H](C)/C=C/C=C/C=C/1C` [ridaforolimus] as the compound, how does the “Exposure (day 5 AUC0–24h) higher than adult target level” value (clinical; 28 mg/m^2 vs adult RP2D 40 mg (1,739 h•ng/mL)) read?
The value was “approximately 34%”.

And the “BSADN AUC, lower bound of 90% 1-sided confidence interval for geometric mean” value (clinical; 33 mg/m^2)?
Its value is 61.2 h•ng•m^2/(mL•mg).

And the “C4h, lower bound of 90% 1-sided confidence interval for geometric mean” value (clinical; 33 mg/m^2)?
The value was 154 ng/mL.

And the “C8h, lower bound of 90% 1-sided confidence interval for geometric mean” value (clinical; 33 mg/m^2)?
Its value is 100 ng/mL.

What about the “Day 5 AUC0–24h, lower bound of 90% 1-sided confidence interval for geometric mean” value (clinical; 33 mg/m^2) of the same compound?
Its value is 2,020 h•ng/mL.

What about the “t1/2, lower bound of 90% 1-sided confidence interval for geometric mean” value (clinical; 33 mg/m^2) of the same compound?
The value was 23.0 h.

What about the “BSADN AUC (AUC normalized by BSA-adjusted dose), geometric mean” value (clinical; 33 mg/m^2, n = 11) of the same compound?
The value was 69.8 h•ng•m^2/(mL•mg).

And the “Exposure (day 5 AUC0–24h) higher than adult target level” value (clinical; 33 mg/m^2 vs adult RP2D 40 mg (1,739 h•ng/mL))?
The value was about 31%.

And the AUC(0-t) (clinical; oral, 22 mg/m2)?
The AUC(0-t) was 1340 ng·h/mL.

What about the half-life (clinical; oral, 22 mg/m2, t1/2, arithmetic mean (SD), 22 mg/m^2, n = 3) of the same compound?
Its half-life is 25.5 h.

What about the half-life (clinical; oral, 22 mg/m2, t1/2, geometric mean (CV%), 22 mg/m^2, n = 3) of the same compound?
Its half-life is 25.5 h.

And the half-life (clinical; oral, 22 mg/m2, t1/2, median (range), 22 mg/m^2, n = 3)?
Its half-life is 24.5 h.

And the concentration at 4 h (clinical; oral, 22 mg/m^2, C4h, arithmetic mean (SD), day 5, 22 mg/m^2, n = 4)?
The concentration at 4 h was 139 ng/mL.

And the concentration at 4 h (clinical; oral, 22 mg/m^2, C4h, geometric mean (CV%), day 5, 22 mg/m^2, n = 4)?
Its concentration at 4 h is 131 ng/mL.

What about the concentration at 8 h (clinical; oral, 22 mg/m^2, C8h, arithmetic mean (SD), day 5, 22 mg/m^2, n = 4) of the same compound?
The concentration at 8 h was 74 ng/mL.

What about the concentration at 8 h (clinical; oral, 22 mg/m^2, C8h, geometric mean (CV%), day 5, 22 mg/m^2, n = 4) of the same compound?
Its concentration at 8 h is 71 ng/mL.

And the AUC(0-t) (clinical; oral, 28 mg/m2)?
The AUC(0-t) was 2330 ng·h/mL.

What about the half-life (clinical; oral, 28 mg/m2, t1/2, arithmetic mean (SD), 28 mg/m^2, n = 3) of the same compound?
The half-life was 28.2 h.

And the half-life (clinical; oral, 28 mg/m2, t1/2, geometric mean (CV%), 28 mg/m^2, n = 3)?
The half-life was 27.2 h.

And the half-life (clinical; oral, 28 mg/m2, t1/2, median (range), 28 mg/m^2, n = 3)?
The half-life was 26.5 h.

And the concentration at 4 h (clinical; oral, 28 mg/m^2, C4h, arithmetic mean (SD), day 5, 28 mg/m^2, n = 3)?
Its concentration at 4 h is 228 ng/mL.

And the concentration at 4 h (clinical; oral, 28 mg/m^2, C4h, geometric mean (CV%), day 5, 28 mg/m^2, n = 3)?
The concentration at 4 h was 227 ng/mL.

And the concentration at 8 h (clinical; oral, 28 mg/m^2, C8h, arithmetic mean (SD), day 5, 28 mg/m^2, n = 3)?
The concentration at 8 h was 119 ng/mL.

What about the concentration at 8 h (clinical; oral, 28 mg/m^2, C8h, geometric mean (CV%), day 5, 28 mg/m^2, n = 3) of the same compound?
Its concentration at 8 h is 116 ng/mL.

And the AUC(0-t) (clinical; oral, 33 mg/m2)?
The AUC(0-t) was 2280 ng·h/mL.

What about the half-life (clinical; oral, 33 mg/m2, t1/2, arithmetic mean (SD), 33 mg/m^2, n = 9) of the same compound?
Its half-life is 26.9 h.

What about the half-life (clinical; oral, 33 mg/m2, t1/2, geometric mean (CV%), 33 mg/m^2, n = 9) of the same compound?
Its half-life is 26 h.

What about the half-life (clinical; oral, 33 mg/m2, t1/2, median (range), 33 mg/m^2, n = 9) of the same compound?
Its half-life is 24.9 h.

What about the concentration at 4 h (clinical; oral, 33 mg/m^2, C4h, arithmetic mean (SD), day 5, 33 mg/m^2, n = 11) of the same compound?
The concentration at 4 h was 200 ng/mL.

And the concentration at 4 h (clinical; oral, 33 mg/m^2, C4h, geometric mean (CV%), day 5, 33 mg/m^2, n = 11)?
Its concentration at 4 h is 184 ng/mL.

What about the concentration at 8 h (clinical; oral, 33 mg/m^2, C8h, arithmetic mean (SD), day 5, 33 mg/m^2, n = 12) of the same compound?
The concentration at 8 h was 118 ng/mL.

And the concentration at 8 h (clinical; oral, 33 mg/m^2, C8h, geometric mean (CV%), day 5, 33 mg/m^2, n = 12)?
The concentration at 8 h was 113 ng/mL.

And the half-life (clinical; oral, Mean (geometric) elimination half-lives, independent of dose level)?
Its half-life is 26 to 27 h.

And the “Steady state from trough concentrations (predose days 1 through 5)” value (clinical; oral once daily)?
The value was “steady-state concentrations had been achieved at day 5”.

What about the “Lag before absorption after dosing” value (clinical; oral, all dose levels) of the same compound?
The value was “approximately 2 hours”.

What about the “Time of highest blood concentrations after dosing” value (clinical; oral, all dose levels) of the same compound?
Its value is about 4 h.

What about the “Day 5 AUC0–24h in adults, estimated geometric mean” value [1] of the same compound?
Its value is 1,739 h•ng/mL.

What about the “Blood–brain barrier passage” value [2] of the same compound?
Its value is “crosses the blood–brain barrier”.
